53 compounds from ChEMBL document CHEMBL2029318, “Synthesis and SAR of selective small molecule neuropeptide Y Y2 receptor antagonists” (Bioorg Med Chem Lett, 2012) can be followed below.

The source made the active and inactive calls. Bounds are passed on as bounds.

What all share (assay type): functional
The target in test [1] is T1, Neuropeptide Y receptor type 2 (Homo sapiens, UniProt P49146).
T1 sequence (P49146 whole entry): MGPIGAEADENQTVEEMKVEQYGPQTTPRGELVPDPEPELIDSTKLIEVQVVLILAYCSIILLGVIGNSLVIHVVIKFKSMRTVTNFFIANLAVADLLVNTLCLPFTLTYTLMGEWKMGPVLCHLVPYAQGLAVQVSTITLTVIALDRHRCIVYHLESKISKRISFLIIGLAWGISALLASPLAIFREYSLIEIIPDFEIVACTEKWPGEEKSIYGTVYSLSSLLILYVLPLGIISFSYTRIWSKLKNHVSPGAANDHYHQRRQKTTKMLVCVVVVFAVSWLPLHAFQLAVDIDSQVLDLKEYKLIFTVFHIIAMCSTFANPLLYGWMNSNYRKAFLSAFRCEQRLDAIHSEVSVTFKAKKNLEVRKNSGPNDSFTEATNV
The test can be described thus: Antagonist activity at neuropeptide Y receptor Y2.

For test [2], the target named is T2, Neuropeptide Y receptor type 1 (Homo sapiens) (UniProt P25929).
T2 sequence (whole entry): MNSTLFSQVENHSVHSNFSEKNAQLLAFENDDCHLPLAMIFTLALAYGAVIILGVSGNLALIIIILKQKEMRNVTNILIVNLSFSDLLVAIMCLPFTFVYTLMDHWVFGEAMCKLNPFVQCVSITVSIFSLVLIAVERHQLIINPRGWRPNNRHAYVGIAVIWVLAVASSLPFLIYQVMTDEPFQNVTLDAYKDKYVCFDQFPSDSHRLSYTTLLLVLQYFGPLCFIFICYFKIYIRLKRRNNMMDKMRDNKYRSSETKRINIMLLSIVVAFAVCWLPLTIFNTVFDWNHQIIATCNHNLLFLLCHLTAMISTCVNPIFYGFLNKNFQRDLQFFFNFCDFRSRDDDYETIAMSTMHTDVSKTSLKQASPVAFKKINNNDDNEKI
The test is described as follows: Antagonist activity at neuropeptide Y receptor Y1 at 10 uM.

In test [3] the target is T3, Neuropeptide Y receptor type 2 (Homo sapiens) (UniProt P49146).
T3 sequence (whole entry): T1 sequence (P49146 whole entry)
The test is described as follows: Antagonist activity at neuropeptide Y receptor Y2 at 10 uM.

Turning to `CN(C)S(=O)(=O)c1ccc(OC(=O)N2CCC(C(O)(c3ccccc3)c3ccccc3)CC2)cc1`, the midpoint of inhibition in test [1], the IC50, lay at 61 nM. For the same compound, the result in test [2] was inactive.
As for `CCOc1ccc(NC(=S)N2CCC(C(O)(c3ccccc3)c3c(C)noc3C)CC2)cc1` (stereo not drawn), the IC50 (as a rule, the concentration that inhibits the measured activity by half) in test [1] stood at 3300 nM. In test [2], the outcome was inactive.
In test [1], `CN(C)S(=O)(=O)c1ccc(NC(=S)N2CCC(C(O)(c3ccccc3)c3ccsc3)CC2)cc1` (stereo not drawn) showed an IC50 of 248 nM. Besides, in test [2], the outcome was inactive.
In test [1], `CN(C)S(=O)(=O)c1ccc(NC(=S)N2CCN(C3c4ccccc4NC(=O)c4ccccc43)CC2)cc1` (stereo not drawn) showed an IC50 of 67 nM. Besides, the result in test [2] was inactive.
For `OC(c1ccccc1)(c1ccccc1)C1CCN(C(=S)Nc2ccc(C(F)(F)F)cc2)CC1`, in that order: 178 nM and “inactive”.
For `CN(C)S(=O)(=O)c1ccc(NC(=S)N2CCC(C(O)(c3ccccc3)c3ccccn3)CC2)cc1` (stereo not drawn), in that order: 98 nM and “inactive”.
The matching figures for `CS(=O)(=O)Nc1ccc(OC(=O)N2CCC(C(O)(c3ccccc3)c3ccccc3)CC2)cc1`: 394 nM and “inactive”.
For `CCC(=O)Nc1ccc(OC(=O)N2CCC(C(O)(c3ccccc3)c3ccccc3)CC2)cc1`, the result in test [2] and in test [3] was inactive.
`CS(=O)(=O)c1ccc(OC(=O)N2CCC(C(O)(c3ccccc3)c3ccccc3)CC2)cc1` had an IC50 in test [1] of 141 nM. Besides, the result in test [2] was inactive.
The compound `O=C(Oc1ccc(S(=O)(=O)N2CCCC2)cc1)N1CCC(C(O)(c2ccccc2)c2ccccc2)CC1` returned an IC50 in test [1] of 49 nM. In test [2], the result was inactive.
On to `CCOc1ccc(NC(=S)N2CCC(C(O)(c3ccccc3)c3ccccc3)CC2)cc1C#N`, for which the IC50 in test [1] was found to be 323 nM. In addition, the outcome in test [2] was inactive.
The matching figures for `CCN(CC)c1ccc(NC(=S)N2CCC(C(O)(c3ccccc3)c3ccccc3)CC2)cc1`: 72 nM and “inactive”.
For `CCN(CC)C(=O)c1ccc(NC(=S)N2CCC(C(O)(c3ccccc3)c3ccccc3)CC2)cc1`, in that order: 78 nM and “inactive”.
The matching figures for `CCOc1ccc(NC(=S)N2CCC(C(O)(c3ccccc3)c3ccccc3)CC2)c(F)c1`: 1350 nM and “inactive”.
As to `CN(C)C(=O)c1ccc(NC(=S)N2CCC(C(O)(c3ccccc3)c3ccccc3)CC2)cc1`, in test [1], half-maximal inhibition (IC50) required 301 nM. Further, in test [2], the outcome was inactive.
For `CCOc1ccc(NC(=S)N2CCC(=C(c3ccccc3)c3ccccc3)CC2)cc1`, the result in test [2] and in test [3] was inactive.
As for `CCOc1ccc(NC(=S)N2CCN(C(c3ccccc3)c3ccccc3)CC2)cc1`, the IC50 in test [1] amounted to 371 nM. Also, the result in test [2] was inactive.
`OC(c1ccccc1)(c1ccccc1)C1CCN(C(=S)Nc2cccc(C(F)(F)F)c2)CC1`: the result in test [2] and in test [3] was inactive.
On to `CC(=O)Nc1ccc(OC(=O)N2CCC(C(O)(c3ccccc3)c3ccccc3)CC2)cc1`, for which the result in test [2] and in test [3] was inactive.
As for `OC(c1ccccc1)(c1ccccc1)C1CCN(C(=S)Nc2ccccc2)CC1`, the outcome in test [2] and in test [3] was inactive.
In test [1], `CCOc1ccc(NC(=S)N2CCC(C(O)(c3ccccc3)c3ccccc3)CC2)cc1` yielded an IC50 of 190 nM. The result in test [2] was inactive.
With `CCNC(=O)c1ccc(NC(=S)N2CCC(C(O)(c3ccccc3)c3ccccc3)CC2)cc1`, it took 206 nM to reach half-maximal inhibition in test [1] (IC50). The outcome in test [2] was inactive.
The compound `CN(C)S(=O)(=O)c1ccc(NC(=S)N2CCN(C(c3ccccc3)c3ccccc3)CC2)cc1` gave an IC50 in test [1] of 483 nM. In addition, the outcome in test [2] was inactive.
For `CNC(=O)c1ccc(NC(=S)N2CCC(C(O)(c3ccccc3)c3ccccc3)CC2)cc1`, in that order: 1420 nM and “inactive”.
The matching figures for `CN(C)c1ccc(NC(=S)N2CCC(C(O)(c3ccccc3)c3ccccc3)CC2)cc1`: 612 nM and “inactive”.
For `CCN(CC)S(=O)(=O)c1ccc(OC(=O)N2CCC(C(O)(c3ccccc3)c3ccccc3)CC2)cc1`, in that order: 12 nM and “inactive”.
`CCNS(=O)(=O)c1ccc(NC(=S)N2CCC(C(O)(c3ccccc3)c3ccccc3)CC2)cc1`: the IC50 in test [1] is 121 nM. In test [2], the outcome was inactive.
The matching figures for `CCOc1ccc(NC(=S)N2CCC(C(c3ccccc3)c3ccccc3)CC2)cc1`: more than 10000 nM and “inactive”.
The matching figures for `COc1ccc(OC(=O)N2CCC(C(O)(c3ccccc3)c3ccccc3)CC2)cc1`: 2680 nM and “inactive”.
For `O=S(=O)(c1ccc(NC(=S)N2CCC(C(O)(c3ccccc3)c3ccccc3)CC2)cc1)N1CCCC1`, in that order: 117 nM and “inactive”.
`Cc1ccc(S(=O)(=O)C(c2ccccc2)c2c(C)noc2C)cc1` (stereo not drawn) yielded an IC50 in test [1] of 4400 nM.
As for `CN(C)S(=O)(=O)c1ccc(NC(=S)N2CCC(C(O)(c3ccccc3)c3ccoc3)CC2)cc1` (stereo not drawn), the result in test [2] and in test [3] was inactive.
As for `CN(C)S(=O)(=O)c1ccc(NC(=S)N2CCN(C3c4ccccc4CCc4ccccc43)CC2)cc1`, the outcome in test [2] and in test [3] was inactive.
`COc1cccc(-c2nc(-c3ccc(NC(=O)Cc4ccccc4OC)cc3)no2)c1` returned an IC50 in test [1] of 1200 nM.
Regarding `CCS(=O)(=O)c1ccc(OC(=O)N2CCC(C(O)(c3ccccc3)c3ccccc3)CC2)cc1`, it took 59 nM to reach half-maximal inhibition in test [1] (IC50). In addition, the outcome in test [2] was inactive.
With `COC(c1ccccc1)(c1ccccc1)C1CCN(C(=S)Nc2ccc(S(=O)(=O)N(C)C)cc2)CC1`, the result in test [2] and in test [3] was inactive.
Consider `OC(c1ccccc1)(c1ccccc1)C1CCN(C(=S)Nc2ccc(C(F)(F)F)cc2Cl)CC1`, for which the result in test [2] and in test [3] was inactive.
In test [1], `CCCc1ccc(NC(=S)N2CCC(C(O)(c3ccccc3)c3ccccc3)CC2)cc1` displayed an IC50 of 777 nM. In test [2], the outcome was inactive.
In test [1], `CCN(CC)S(=O)(=O)c1ccc(NC(=S)N2CCC(C(O)(c3ccccc3)c3ccccc3)CC2)cc1` showed an IC50 of 136 nM. For the same compound, the result in test [2] was inactive.
The matching figures for `CCN(CC)C(=O)c1ccc(OC(=O)N2CCC(C(O)(c3ccccc3)c3ccccc3)CC2)cc1`: 220 nM and “inactive”.
`CC(C)Oc1ccc(NC(=S)N2CCC(C(O)(c3ccccc3)c3ccccc3)CC2)cc1C#N`: half-maximal inhibition in test [1] (IC50) was put at 899 nM. Besides, in test [2], the outcome was inactive.
With `CCOc1ccc(NC(=S)N2CCC(C(O)(c3ccccc3)c3ccccc3)CC2)c(C)c1`, the outcome in test [2] and in test [3] was inactive.
`Cc1ccc(C)c(NS(=O)(=O)c2cc(C(=O)Nc3ccccc3-c3ccccc3)ccc2C)c1`: half-maximal inhibition in test [1] (IC50) was put at 440 nM.
As for `COc1ccc(NC(=S)N2CCC(C(O)(c3ccccc3)c3ccccc3)CC2)cc1`, in test [1], the IC50 is 1100 nM. In addition, in test [2], the outcome was inactive.
The matching figures for `CCOC(=O)c1ccc(NC(=S)N2CCC(C(c3ccccc3)c3ccccc3)CC2)cc1`: 6760 nM and “inactive”.
Take `OC(c1ccccc1)(c1ccccc1)C1CCN(C(=S)Nc2ccc(OC(F)(F)F)cc2)CC1`: in test [1], the IC50 is 1050 nM. Further, in test [2], the outcome was inactive.
The matching figures for `CN(C)S(=O)(=O)c1ccc(NC(=S)N2CCC(C(O)(c3ccccc3)c3ccc(F)cc3)CC2)cc1` (stereo not drawn): 89 nM and “inactive”.
`CN(C)S(=O)(=O)c1ccc(NC(=S)N2CCC(C(O)(c3ccccc3)c3ccccc3)CC2)cc1` gave an IC50 in test [1] of 19 nM. Moreover, in test [2], the outcome was inactive.
The matching figures for `CC(C)Oc1ccc(NC(=S)N2CCC(C(O)(c3ccccc3)c3ccccc3)CC2)cc1`: 1770 nM and “inactive”.
`CCN(CC)c1ccc(NC(=S)N2CCC(C(O)(c3ccccc3)c3ccccc3)CC2)cc1Cl`: in test [1], the midpoint of inhibition, the IC50, lay at 85 nM. Further, the outcome in test [2] was inactive.
For `CCOc1ccc(OC(=O)N2CCC(C(O)(c3ccccc3)c3ccccc3)CC2)cc1`, in that order: 1580 nM and “inactive”.
For `CCOC(=O)c1ccc(NC(=S)N2CCC(C(O)(c3ccccc3)c3ccccc3)CC2)cc1`, in that order: 207 nM and “inactive”.
For `OC(c1ccccc1)(c1ccccc1)C1CCN(C(=S)Nc2ccc(N3CCCC3)cc2)CC1`, in that order: 1200 nM and “inactive”.
